Measured values reported in patent US8389523B2, “Substituted quinoxaline and an agrochemical composition thereof” (Kumiai Chemical Industry Co., Ltd., priority 2007, dated 2013).

Legend:
Type in all cases: in vivo
Design in all cases: scale not given here
[1] = test system: Abutilon theophrasti medicus; assay: Herbicidal effects in upland field soil treatment (Test Example 2); details: 1000 g active ingredient per hectare, 21st day after treatment, criteria of Table 138
Outline: (§1)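 Pre-emergence test: seeds sown in upland soil, then soil surface sprayed with diluted wettable powder at 1000 g active ingredient per hectare (1000 liters per hectare). Greenhouse growth; herbicidal effect scored on day 21 against set criteria.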

Amaranthus viridis L. [2] = assay: as above; details: 1000 g active ingredient per hectare, 21st day after treatment, criteria of Table 138
Outline: as §1

[3] = test system: Echinochloa oryzicola Vasing; assay: Herbicidal effects in paddy field soil treatment (Test Example 1); details: for Herbicidal effects index, Echinochloa oryzicola Vasing: paddy field soil treatment, 1000 g of the active ingredient per hectare, wettable powder added dropwise on water surface, 21st day after treatment
Outline: (§2)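 Seeds sown in puddled paddy soil, waterlogged to 3 cm depth; next day a diluted wettable powder applied dropwise to the water surface at 1000 g active ingredient per hectare. Herbicidal effect scored 21 days after treatment in a greenhouse.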

[4] = test system: Scirpus juncoides Roxb. var. ohwianus. T. Koyama; assay: as above; details: for Herbicidal effects index, Scirpus juncoides Roxb. var. ohwianus. T. Koyama: paddy field soil treatment, 1000 g of the active ingredient per hectare, wettable powder added dropwise on water surface, 21st day after treatment
Outline: as §2

[5] = test system: Monochoria vaginalis (Burm. f.) Presl var. plantaginea (Roxb.) Solms-Laub.; assay: as above; details: for Herbicidal effects index, Monochoria vaginalis (Burm. f.) Presl var. plantaginea (Roxb.) Solms-Laub.: paddy field soil treatment, 1000 g of the active ingredient per hectare, wettable powder added dropwise on water surface, 21st day after treatment
Outline: as §2

[6] = test system: Echinochloa crus-galli (L.) P. Beauv. var. crus-galli; assay: Herbicidal effects in upland field foliar treatment (Test Example 3); details: criteria of Table 138; for herbicidal effects on Echinochloa crus-galli (L.) P. Beauv. var. crus-galli: 1000 g of the active ingredient per hectare, 14th day after the treatment, wettable powder; for herbicidal effect (index) on Echinochloa crus-galli (L.) P. Beauv. var. crus-galli: 1000 g active ingredient per hectare, 14th day after treatment
Outline: (§3)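 Plants grown two weeks from seed in upland soil in a greenhouse, then sprayed overall with water-diluted wettable powder at 1000 L/ha delivering 1000 g active ingredient/ha. Herbicidal effect scored by rating criteria 14 days after treatment.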

[7] = test system: Abutilon theophrasti medicus; assay: as above; details: criteria of Table 138; for herbicidal effects on Abutilon theophrasti medicus: 1000 g of the active ingredient per hectare, 14th day after the treatment, wettable powder; for herbicidal effect (index) on Abutilon theophrasti medicus: 1000 g active ingredient per hectare, 14th day after treatment
Outline: as §3

Amaranthus viridis L. [8] = assay: as above; details: criteria of Table 138; for herbicidal effects on Amaranthus viridis L.: 1000 g of the active ingredient per hectare, 14th day after the treatment, wettable powder; for herbicidal effect (index) on Amaranthus viridis L.: 1000 g active ingredient per hectare, 14th day after treatment
Outline: as §3

[9] = paddy field soil treatment (Test Example 1), criteria of Table 138

| Structure (SMILES) | herbicidal effect (index) on Abutilon theophrasti medicus [1] | herbicidal effect (index) on Amaranthus viridis L. (Amaranthus viridis L. [2]) | Herbicidal effects index, Echinochloa oryzicola Vasing [3] | Herbicidal effects index, Scirpus juncoides Roxb. var. ohwianus. T. Koyama [4] | Herbicidal effects index, Monochoria vaginalis (Burm. f.) Presl var. plantaginea (Roxb.) Solms-Laub. [5] | herbicidal effects on Echinochloa crus-galli (L.) P. Beauv. var. crus-galli [6] | herbicidal effects on Abutilon theophrasti medicus [7] | herbicidal effects on Amaranthus viridis L. (Amaranthus viridis L. [8]) | herbicidal effect (index) on Echinochloa crus-galli (L.) P. Beauv. var. crus-galli [6] | herbicidal effect (index) on Abutilon theophrasti medicus [7] | herbicidal effect (index) on Amaranthus viridis L. (Amaranthus viridis L. [8]) | herbicidal effect (index) on Echinochloa oryzicola Vasing [3, 9] | herbicidal effect (index) on Scirpus juncoides Roxb. var. ohwianus. T. Koyama [4, 9] | herbicidal effect (index) on Monochoria vaginalis (Burm. f.) Presl var. plantaginea (Roxb.) Solms-Laub. [5, 9] |
| --- | --- | --- | --- | --- | --- | --- | --- | --- | --- | --- | --- | --- | --- | --- |
| O=C1CCCC(O)=C1C(=O)c1nc2c(Cl)cccc2n(-c2ccccc2)c1=O [II-190] | 5 | 4 | 5 | 5 | 5 | 4 | 5 | 5 | – | – | – | – | – | – |
| CC1(C)CC(=O)C(C(=O)c2nc3cccnc3n(-c3ccccc3)c2=O)=C(O)C1 [IV-3] | 5 | 5 | 5 | 5 | 5 | 5 | 5 | 5 | – | – | – | – | – | – |
| CCCCn1c(=O)c(C(=O)C2=C(O)CCCC2=O)nc2cccnc21 [III-15] | 5 | 5 | 5 | 5 | 5 | 5 | 5 | 5 | – | – | – | – | – | – |
| C=CCn1c(=O)c(C(=O)C2=C(O)CCCC2=O)nc2cccnc21 [III-30] | 5 | 5 | 4 | 5 | 5 | 4 | 5 | 5 | – | – | – | – | – | – |
| COc1ccc(-n2c(=O)c(C(=O)C3=C(O)C(C)(C)CCC3=O)nc3ccccc32)cc1 [II-63] | 5 | 5 | 5 | 5 | 5 | 5 | 4 | 5 | – | – | – | – | – | – |
| CCOCn1c(=O)c(C(=O)C2=C(O)CCCC2=O)nc2ccccc21 [I-50] | 5 | 5 | 5 | 5 | 5 | – | – | – | 4 | 5 | 5 | – | – | – |
| Cc1ccccc1-n1c(=O)c(C(=O)C2=C(O)CCCC2=O)nc2cccnc21 [IV-19] | 5 | 5 | 5 | 5 | 5 | 5 | 5 | 5 | – | – | – | – | – | – |
| O=C1CCCC(O)=C1C(=O)c1nc2cccnc2n(-c2ccccc2Cl)c1=O [IV-9] | 5 | 5 | 5 | 5 | 5 | 5 | 5 | 5 | – | – | – | – | – | – |
| O=C1CCCC(O)=C1C(=O)c1nc2ccccc2n(-c2ccc3c(c2)COC3)c1=O [II-224] | 5 | 5 | 4 | 5 | 5 | 5 | 5 | 5 | – | – | – | – | – | – |
| CSCn1c(=O)c(C(=O)C2=C(O)CCCC2=O)nc2ccccc21 [I-70] | 5 | 5 | 5 | 5 | 5 | – | – | – | 5 | 5 | 5 | – | – | – |
| Cc1ccc(-n2c(=O)c(C(=O)C3=C(O)CCCC3=O)nc3cccnc32)cc1 [IV-21] | 5 | 5 | 5 | 5 | 5 | 5 | 5 | 5 | – | – | – | – | – | – |
| Cc1cc(-n2c(=O)c(C(=O)C3=C(O)CCCC3=O)nc3cc(F)ccc32)no1 [I-281] | 5 | 5 | 5 | 5 | 5 | – | – | – | 5 | 5 | 5 | – | – | – |
| COc1ccc(-n2c(=O)c(C(=O)C3=C(O)CCCC3=O)nc3ccccc32)nc1 [I-180] | 5 | 5 | 4 | 5 | 5 | – | – | – | 4 | 5 | 5 | – | – | – |
| O=C1CCCC(O)=C1C(=O)c1nc2cccnc2n(-c2ccc(OC(F)F)cc2)c1=O [IV-95] | 5 | 5 | – | – | – | 5 | 5 | 5 | – | – | – | 5 | 5 | 5 |
| CC1(C)C(=O)C(C(=O)c2nc3ccccc3n(-c3ccc(Cl)cc3)c2=O)=C(O)C(C)(C)C1=O [II-15] | 5 | 5 | 5 | 5 | 5 | 5 | 5 | 5 | – | – | – | – | – | – |
